Laboratory results reported in patent US20060116390A1, “Hepatitis c virus inhibitors” (priority 2003, published 2006).
pIC50: −log10 of the molar value. Where two headings read alike, the source gives them in different places.

Tested on: HCV proteins in Rep5.1 cells (replicon cell line)
Assay: Inhibitory activity of HCV: cell-based ELISA in replicon cell line Rep5.1 (decrease of HCV proteins)
Parameters: species or system hepatitis C virus
Details: Rep5.1 cells, 72 hours with drug
Method in brief: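 HCV protein loss was quantified by ELISA on methanol/acetone-fixed cells 72 h after drug addition, probing with selected HCV-positive human plasma, and IC50 was defined as 50% reduction relative to untreated wells. The cells were Rep5.1 replicon cells cultured in DMEM-10 with 500 μg/ml G418, plated at 5000 per well and dosed with serial dilutions after 4 h attachment.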

[1] = Hepatitis C virus, 72 h, concentration at which 50% of HCV proteins was decreased, Table 2, read-out: IC50
[2] = Hepatitis C virus, 72 h, decrease of HCV proteins measured by HCV antibody, Table 1, read-out: Level (IC50 values classified)
[3] = concentration at which 50% of HCV proteins was decreased, Table 2, read-out: IC50

Row | Structure (SMILES) | pIC50 [1] | pIC50 [2] | pIC50 [3]
1 | CC1=C(C(=O)OCc2ccc3nnn(C)c3c2)CNC(=S)N1 [Compound 242, 6-methyl-2-thioxo-1,2,3,4-tetrahydro-pyrimidine-5-carboxylic acid 3-methyl-3H-benzotriazol-5-ylmethyl ester] | 4.20 | < 4.70 | –
2 | CC1=C(C(=O)OCCc2cccc([N+](=O)[O-])c2)C(COC(=O)c2ccccc2)NC(=S)N1 (stereo not drawn) [89″, 4-benzoyloxymethyl-6-methyl-2-thioxo-1,2,3,4-tetrahydro-pyrimidine-5-carboxylic acid 2-(3-nitro-phenyl)-ethyl ester] | 5.17 | 5.00 to 6.00 | –
3 | CC1=C(C(=O)OCCc2ccccc2F)CNC(=S)N1 [Compound 116, 6-methyl-2-thioxo-1,2,3,4-tetrahydro-pyrimidine-5-carboxylic acid 2-(2-fluoro-phenyl)-ethyl ester] | 6.30 | > 6.00 | –
4 | CC1=C(C(=O)OCCc2ccc(F)cc2)C(CO)NC(=S)N1 (stereo not drawn) [5″, 4-hydroxymethyl-6-methyl-2-thioxo-1,2,3,4-tetrahydro-pyrimidine-5-carboxylic acid 2-(4-fluoro-phenyl)-ethyl ester] | 5.22 | 5.00 to 6.00 | –
5 | CC1=C(C(=O)OCCc2ccc(Cl)c(Cl)c2)C(CO)NC(=S)N1 (stereo not drawn) [42″, 4-hydroxymethyl-6-methyl-2-thioxo-1,2,3,4-tetrahydro-pyrimidine-5-carboxylic acid 2-(3,4-dichloro-phenyl)-ethyl ester] | > 6.40 | > 6.00 | –
6 | COc1ccc(Cl)cc1COC(=O)C1=C(C)NC(=S)NC1CF (stereo not drawn) [81′, 4-fluoromethyl-6-methyl-2-thioxo-1,2,3,4-tetrahydro-pyrimidine-5-carboxylic acid 5-chloro-2-methoxy-benzyl ester] | – | – | 5.62
7 | CC1=C(C(=O)OCCCc2ccc(F)cc2)C(CF)NC(=S)N1 (stereo not drawn) [56′, 4-fluoromethyl-6-methyl-2-thioxo-1,2,3,4-tetrahydro-pyrimidine-5-carboxylic acid 3-(4-fluorophenyl)-propyl ester] | 5.62 | 5.00 to 6.00 | –
8 | CC1=C(C(=O)OCCCc2ccccc2)C(CO)NC(=S)N1 (stereo not drawn) [14″, 4-hydroxymethyl-6-methyl-2-thioxo-1,2,3,4-tetrahydro-pyrimidine-5-carboxylic acid 3-phenyl-propyl ester] | 5.59 | 5.00 to 6.00 | –
9 | CCc1ccc(CCOC(=O)C2=C(C)NC(=S)NC2CO)o1 (stereo not drawn) [65″, 4-hydroxymethyl-6-methyl-2-thioxo-1,2,3,4-tetrahydro-pyrimidine-5-carboxylic acid 2-(5-ethyl-furan-2-yl)-ethyl ester] | 5.85 | 5.00 to 6.00 | –
10 | CC1=C(C(=O)O[C@H](C)c2ccccc2)CNC(=S)N1 (racemic) [Compound 26, 6-methyl-2-thioxo-1,2,3,4-tetrahydro-pyrimidine-5-carboxylic acid (R,S)-1-phenyl-ethyl ester] | – | – | 5.52
11 | CC1=C(C(=O)OCCc2c(F)c(F)cc(F)c2F)C(CF)NC(=S)N1 (stereo not drawn) [65′, 4-fluoromethyl-6-methyl-2-thioxo-1,2,3,4-tetrahydro-pyrimidine-5-carboxylic acid 2-(2,3,5,6-tetrafluoro-phenyl)-ethyl ester] | 5.85 | 5.00 to 6.00 | –
12 | CC1=C(C(=O)OCCc2ccsc2Br)C(CF)NC(=S)N1 (stereo not drawn) [Compound 268, 4-fluoromethyl-6-methyl-2-thioxo-1,2,3,4-tetrahydro-pyrimidine-5-carboxylic acid 2-(2-bromo-thiophen-3-yl)-ethyl ester] | 6.00 | 5.00 to 6.00 | –
13 | CC1=C(C(=O)SCc2ccccc2)CNC(=S)N1 [Compound 85, 6-methyl-2-thioxo-1,2,3,4-tetrahydro-pyrimidine-5-carbothioic acid S-benzyl ester] | 7.00 | > 6.00 | –
14 | CC1=C(C(=O)OCCCc2cccc(OC(F)(F)F)c2)CNC(=S)N1 [Compound 106, 6-methyl-2-thioxo-1,2,3,4-tetrahydro-pyrimidine-5-carboxylic acid 3-(3-trifluoromethoxy-phenyl)-propyl ester] | > 6.40 | > 6.00 | –
15 | CC1=C(C(=O)OCCc2ccsc2)C2(CC2)NC(=S)N1 [13′, 7-methyl-5-thioxo-4,6-diaza-spiro[2.5]oct-7-ene-8-airboxylic acid 2-thiophen-3-yl-ethyl ester] | – | – | 4.10
16 | CC1=C(C(=O)OCCc2ccc(N(C)CC3CC3)c([N+](=O)[O-])c2)C(CO)NC(=S)N1 (stereo not drawn) [98″, 4-Hydroxymethyl-6-methyl-2-thioxo-1,2,3,4-tetrahydro-pyrimidine-5-carboxylic acid 2-[4-(cyclopropylmethyl-methyl-amino)-3-nitro-phenyl]-ethyl ester] | 6.00 | > 6.00 | –
17 | CC1=C(C(=O)OCCc2scnc2C)CNC(=S)N1 [Compound 24, 6-methyl-2-thioxo-1,2,3,4-tetrahydro-pyrimidine-5-carboxylic acid 2-(4-methyl-thiazol-5-yl)-ethyl ester] | 4.15 | < 4.70 | –

Row | Structure (SMILES) | pIC50 [1] | pIC50 [2] | pIC50 [3]
18 | COc1ccc(CCCOC(=O)C2=C(C)NC(=S)NC2)cc1OC [Compound 36, 6-methyl-2-thioxo-1,2,3,4-tetrahydro-pyrimidine-5-carboxylic acid 3-(3,4-dimethoxy-phenyl)-propyl ester] | 4.08 | < 4.70 | –
19 | CC1=C(C(=O)OCC2=Cc3ccccc3S2(=O)=O)CNC(=S)N1 [Compound 127, 6-methyl-2-thioxo-1,2,3,4-tetrahydro-pyrimidine-5-carboxylic acid 1,1-dioxo-1H-11^6-benzo[b]thiophen-2-ylmethyl ester] | – | – | 5.46
20 | O=C(OCc1ccccc1)C1=CNC(=S)NC1 [Compound 44, 2-thioxo-1,2,3,4-tetrahydro-pyrimidine-5-carboxylic acid benzyl ester] | 5.52 | 5.00 to 6.00 | –
21 | CC1=C(C(=O)OCCCc2cccnc2)CNC(=S)N1 [Compound 158, 6-methyl-2-thioxo-1,2,3,4-tetrahydro-pyrimidine-5-carboxylic acid 3-pyridin-3-yl-propyl ester] | < 4.00 | < 4.70 | –
22 | CC1=C(C(=O)OCCc2ccccc2C)CNC(=S)N1 [Compound 133, 6-methyl-2-thioxo-1,2,3,4-tetrahydro-pyrimidine-5-carboxylic acid 2-o-tolyl-ethyl ester] | > 6.40 | > 6.00 | –
23 | CC1=C(C(=O)OCC2(c3ccc(Cl)cc3Cl)CC2)C(CO)NC(=S)N1 (stereo not drawn) [61″, 4-hydroxymethyl-6-methyl-2-thioxo-1,2,3,4-tetrahydro-pyrimidine-5-carboxylic acid 1-(2,4-dichloro-phenyl)-cyclopropylmethyl ester] | 4.80 | 4.70 to 5.00 | –
24 | CCNC(=O)OCC1NC(=S)NC(C)=C1C(=O)OCCCc1cccs1 (stereo not drawn) [20″, 4-ethylcarbamoyloxymethyl-6-methyl-2-thioxo-1,2,3,4-tetrahydro-pyrimidine-5-carboxylic acid 3-thiophen-2-yl-propyl ester] | 4.48 | < 4.70 | –
25 | CC1=C(C(=O)OCc2cccc(F)c2)CNC(=S)N1 [Compound 83, 6-methyl-2-thioxo-1,2,3,4-tetrahydro-pyrimidine-5-carboxylic acid 3-fluoro-benzyl ester] | 6.00 | > 6.00 | –
26 | C=C(Br)CCOC(=O)C1=C(C)NC(=S)NC1 [Compound 99, 6-methyl-2-thioxo-1,2,3,4-tetrahydro-pyrimidine-5-carboxylic acid 3-bromo-but-3-enyl ester] | 5.74 | 5.00 to 6.00 | –
27 | CC1=C(C(=O)OCCc2ccc(F)cc2Cl)C(CF)NC(=S)N1 (stereo not drawn) [86′, 4-fluoromethyl-6-methyl-2-thioxo-1,2,3,4-tetrahydro-pyrimidine-5-carboxylic acid 2-(2-chloro-4-fluoro-phenyl)-ethyl ester] | > 6.40 | > 6.00 | –
28 | CCOC(=O)C1NC(=S)NC(C)=C1C(=O)OCCc1ccsc1 (stereo not drawn) [6′, 6-methyl-2-thioxo-1,2,3,4-tetrahydro-pyrimidine-4,5-dicarboxylic acid 4-ethyl ester 5-(2-thiophen-3-yl-ethyl) ester] | < 4.00 | < 4.70 | –
29 | CCOc1ccccc1CCOC(=O)C1=C(C)NC(=S)NC1CF (stereo not drawn) [Compound 274, 4-fluoromethyl-6-methyl-2-thioxo-1,2,3,4-tetrahydro-pyrimidine-5-carboxylic acid 2-(2-ethoxy-phenyl)-ethyl ester] | < 4.00 | < 4.70 | –
30 | CC1=C(C(=O)OCC#Cc2ccccc2)C(CF)NC(=S)N1 (stereo not drawn) [45′, 4-fluoromethyl-6-methyl-2-thioxo-1,2,3,4-tetrahydro-pyrimidine-5-carboxylic acid 3-phenyl-prop-2-inyl ester] | – | – | 6.10
31 | CC1=C(C(=O)OCc2cc3c(C)snc3s2)CNC(=S)N1 [Compound 213, 6-methyl-2-thioxo-1,2,3,4-tetrahydro-pyrimidine-5-carboxylic acid 3-methyl-thieno[2,3-c]isothiazol-5-ylmethyl ester] | 5.40 | 5.00 to 6.00 | –
32 | CC1=C(C(=O)OCCc2cccc(Cl)c2)C(COC(=O)OCCOC(=O)c2ccccc2)NC(=S)N1 (stereo not drawn) [76″, 4-(2-benzoyloxy-ethoxycarbonyloxymethyl)-6-methyl-2-thioxo-1,2,3,4-tetrahydro-pyrimidine-5-carboxylic acid 2-(3-chloro-phenyl)-ethyl ester] | 6.05 | > 6.00 | –
33 | CC1=C(C(=O)OCc2ccc(F)cc2Cl)C(CO)NC(=S)N1 (stereo not drawn) [48″, 4-hydroxymethyl-6-methyl-2-thioxo-1,2,3,4-tetrahydro-pyrimidine-5-carboxylic acid 2-chloro-4-fluoro-benzyl ester] | 4.37 | < 4.70 | –
34 | CC1=C(C(=O)OCc2ccc(O)cc2)CNC(=S)N1 [Compound 229, 6-methyl-2-thioxo-1,2,3,4-tetrahydro-pyrimidine-5-carboxylic acid 4-hydroxy-benzyl ester] | < 4.00 | < 4.70 | –
